Like-named read-outs stand apart in the source and are kept apart here.
Assay: Phase 1b study in female adults with cystitis, plasma PK
Assay type: in vivo, human
Details: for Cmax / AUC(0-t) / Tmax / AUC(0-inf) / half-life / concentration at 5 day: plasma
Method: According to the study design, a randomized (1:1:1), open-label, parallel designed Phase 1b study comparing 3 dosing regimens of Compound 1 (9-[(2,2-dimethyl-propyl amino)-methyl-minocycline) in the treatment of female adults with cystitis was conducted. About 31 female patients with uncomplicated urinary tract infection (cystitis) who met inclusion and exclusion criteria were enrolled at 2-4 U.S. treatment centers. All enrolled subjects participated in the study for approximately 5-6 weeks. Following Screening of up to 48 hrs, eligible subjects were randomly assigned to receive one of 3 dosing regimens of Compound 1 treatment as shown below. Subjects in all treatment groups were domiciled for a 5-day treatment period. Details of the study are further described below.
Subjects were randomized (1:1:1) to one of the following treatment arms: • 1. Group 1: IV load, p.o. daily (200 mg Compound 1 IV every 24 hours (q24h) for 1 dose, followed by 300 mg p.o. q24h for a total of 5 days); • 2. Group 2: p.o. load, p.o. daily (300 mg Compound 1 p.o. every 12 hours (q12h) for 2 doses, followed by 300 mg p.o. q24h for a total of 5 days); • 3. Group 3: high p.o. load, high p.o. daily (450 mg Compound 1 p.o. q12h for 2 doses, followed by 450 mg p.o. q24h for a total of 5 days).
Blood samples were collected and analyzed for Compound 1 concentration at the following times. Pre-dose blood PK evaluations were based on blood samples collected within 10 min of each start (e.g., t=0 h dose for Day 1, t=24 h dose for Day 2, etc.). • Day 1: Pre-dose, and 0.75, 1, 2, 3, 4, 6, 8 and 12 hours after the t=0 h dose (12 h sample before the t=12 h dose for Groups 2 and 3); • Day 2: prior to the t=24 h dose; • Day 3: prior to the t=48 h dose; • Day 4: prior to the t=72 h dose; • Day 5: Pre-dose, and 0.5, 1, 2, 3, 4, 6, 8 and 12 hours after the t=96 h dose • Day 6: at t=120 h (24 hours after the t=96 h dose on Day 5)
Following the final oral doses on Day 5 the Compound 1 plasma concentration-time data for Groups 1, 2 and 3 were used to determine Cmax, Tmax, AUC24h, AUCt. Trough plasma concentrations (Ctrough) following each dose (Days 2 to 6) were also determined.
Blood samples for PK are collected at the time points specified below. • Day 1: Predose, and 0.75, 1, 2, 3, 4, 6, 8 and 12 hours after the t=0 h dose (12 h sample before the t=12 h dose for Groups 2 and 3); • Day 2: prior to the t=24 h dose; • Day 3: prior to the t=48 h dose; • Day 4: prior to the t=72 h dose; • Day 5: Predose, and 0.5, 1, 2, 3, 4, 6, 8 and 12 hours after the t=96 h dose • Day 6: at t=120 h (24 hours after the t=96 h dose on Day 5)
Blood was collected either by fresh venipuncture or via a cannula used solely for that purpose. The dates and times for all doses of test article and PK sample collections were recorded. For intravenously administered doses of test article, the start and stop times for each infusion were recorded. Immediately after the sample was collected, the tube was gently inverted 5 to 8 times to thoroughly mix the anticoagulant and then placed upright in a cryoblock or test tube rack surrounded by ice until centrifugation. Samples were centrifuged at 1500×g for 10 minutes at approximately 4° C. within 30 minutes of collection. The resultant plasma was divided into 2 equal aliquots, placed in individual cryovials, and immediately frozen at −20° C. or colder within 1 hour of collection. The samples were kept frozen at −20° C. or colder pending shipment to the bioanalytical laboratory.
The Compound 1 plasma concentration data was listed and summarized by time point and treatment group. The following PK parameters were estimated from the Compound 1 plasma concentration-time data: […]

[1] = Day 1, 300 mg po (n = 10), mean
[2] = Day 5, 300 mg po (n = 10), mean

CN(C)c1cc(CNCC(C)(C)C)c(O)c2c1C[C@H]1C[C@H]3[C@H](N(C)C)C(O)=C(C(N)=O)C(=O)[C@@]3(O)C(O)=C1C2=O [Compound 1, 9-[(2,2-dimethyl-propylamino)-methyl]-minocycline]
AUC0-12 [1]: 6260 ng·h/mL
Cmax [1]: 880 ng/mL
Cmin (Day 5, 200 mg IV, 300 mg po (n = 11), mean): 290 ng/mL
AUC0-24 [2]: 13500 ng·h/mL
Cmin [2]: 320 ng/mL
Cmin (Day 5, 450 mg po (n = 10), mean): 480 ng/mL
AUC(0-t) (female, human, intravenous, 200 mg, Day 1, 200 mg IV, 300 mg po (n = 11), mean, read-out: AUC0-24): 16000 ng·h/mL
Tmax (female, human, intravenous, 200 mg, Day 1, 200 mg IV, 300 mg po (n = 11), median, read-out: tmax): 0.75 h
Cmax (female, human, intravenous, 200 mg, Day 1, 200 mg IV, 300 mg po (n = 11), mean, read-out: Cmax): 2160 ng/mL
AUC(0-t) (female, human, intravenous, 200 mg, Day 1, IV_PO300, read-out: AUC(0-24 hrs), Geo. Mean): 15600 ng·h/mL
AUC(0-t) (female, human, intravenous, 200 mg, Day 1, IV_PO300, read-out: AUC(0-24 hrs), Mean): 16000 ng·h/mL
AUC(0-t) (female, human, intravenous, 200 mg, Day 1, IV_PO300, read-out: AUC(0-24 hrs), Median): 14800 ng·h/mL
AUC(0-inf) (female, human, intravenous, 200 mg, Day 1, IV_PO300, read-out: AUC(0-inf), Geo. Mean): 19700 ng·h/mL
AUC(0-inf) (female, human, intravenous, 200 mg, Day 1, IV_PO300, read-out: AUC(0-inf), Mean): 19900 ng·h/mL
AUC(0-inf) (female, human, intravenous, 200 mg, Day 1, IV_PO300, read-out: AUC(0-inf), Median): 19300 ng·h/mL
Cmax (female, human, intravenous, 200 mg, Day 1, IV_PO300, read-out: Cmax, Geo. Mean): 1960 ng/mL
Cmax (female, human, intravenous, 200 mg, Day 1, IV_PO300, read-out: Cmax, Mean): 2160 ng/mL
Cmax (female, human, intravenous, 200 mg, Day 1, IV_PO300, read-out: Cmax, Median): 1850 ng/mL
Tmax (female, human, intravenous, 200 mg, Day 1, IV_PO300, read-out: Tmax, Geo. Mean): 0.869 h
Tmax (female, human, intravenous, 200 mg, Day 1, IV_PO300, read-out: Tmax, Mean): 0.897 h
Tmax (female, human, intravenous, 200 mg, Day 1, IV_PO300, read-out: Tmax, Median): 0.75 h
half-life (female, human, intravenous, 200 mg, Day 1, IV_PO300, read-out: T½, Geo. Mean (converted)): 11.3 h
half-life (female, human, intravenous, 200 mg, Day 1, IV_PO300, read-out: T½, Mean (converted)): 11.4 h
half-life (female, human, intravenous, 200 mg, Day 1, IV_PO300, read-out: T½, Median (converted)): 11.5 h
AUC(0-t) (female, human, oral, 300 mg, Day 5, 200 mg IV, 300 mg po (n = 11), mean, read-out: AUC0-24): 13200 ng·h/mL
Cmax (female, human, oral, 300 mg, Day 5, 200 mg IV, 300 mg po (n = 11), mean, read-out: Cmax): 1120 ng/mL
Tmax (female, human, oral, 300 mg, Day 5, 200 mg IV, 300 mg po (n = 11), median, read-out: tmax): 3 h
AUC(0-t) (female, human, oral, 300 mg, Day 1, PO300, read-out: AUC(0-12 hrs), Geo. Mean): 6150 ng·h/mL
AUC(0-t) (female, human, oral, 300 mg, Day 1, PO300, read-out: AUC(0-12 hrs), Mean): 6260 ng·h/mL
AUC(0-t) (female, human, oral, 300 mg, Day 1, PO300, read-out: AUC(0-12 hrs), Median): 6520 ng·h/mL
Cmax (female, human, oral, 300 mg, Day 1, PO300, read-out: Cmax, Geo. Mean): 849 ng/mL
Cmax (female, human, oral, 300 mg, Day 1, PO300, read-out: Cmax, Mean): 877 ng/mL
Cmax (female, human, oral, 300 mg, Day 1, PO300, read-out: Cmax, Median): 916 ng/mL
Tmax (female, human, oral, 300 mg, Day 1, PO300, read-out: Tmax, Geo. Mean): 2.96 h
Tmax (female, human, oral, 300 mg, Day 1, PO300, read-out: Tmax, Mean): 2.99 h
Tmax (female, human, oral, 300 mg, Day 1, PO300, read-out: Tmax, Median): 3 h
AUC(0-t) (female, human, oral, 300 mg, Day 5, IV_PO300, read-out: AUC(0-24 hrs), Geo. Mean): 9550 ng·h/mL
AUC(0-t) (female, human, oral, 300 mg, Day 5, IV_PO300, read-out: AUC(0-24 hrs), Mean): 13200 ng·h/mL
AUC(0-t) (female, human, oral, 300 mg, Day 5, IV_PO300, read-out: AUC(0-24 hrs), Median): 15800 ng·h/mL
Cmax (female, human, oral, 300 mg, Day 5, IV_PO300, read-out: Cmax, Geo. Mean): 808 ng/mL
Cmax (female, human, oral, 300 mg, Day 5, IV_PO300, read-out: Cmax, Mean): 1120 ng/mL
Cmax (female, human, oral, 300 mg, Day 5, IV_PO300, read-out: Cmax, Median): 1300 ng/mL
concentration at 5 day (female, human, oral, 300 mg, Day 5, IV_PO300, read-out: Ctrough, Geo. Mean): 214 ng/mL
concentration at 5 day (female, human, oral, 300 mg, Day 5, IV_PO300, read-out: Ctrough, Mean): 292 ng/mL
concentration at 5 day (female, human, oral, 300 mg, Day 5, IV_PO300, read-out: Ctrough, Median): 378 ng/mL
Tmax (female, human, oral, 300 mg, Day 5, IV_PO300, read-out: Tmax, Geo. Mean): 2.83 h
Tmax (female, human, oral, 300 mg, Day 5, IV_PO300, read-out: Tmax, Mean): 2.6 h
Tmax (female, human, oral, 300 mg, Day 5, IV_PO300, read-out: Tmax, Median): 3 h
half-life (female, human, oral, 300 mg, Day 5, IV_PO300, read-out: T½, Geo. Mean (converted)): 13.2 h

Reference: patent US10238670B2, “9-aminomethyl minocycline compounds and methods of use thereof in urinary tract infection (UTI) treatment” (Paratek Pharmaceuticals, Inc., priority 2016, dated 2019)
